The term GI50 denotes the concentration at which growth is held to half of that of the control. As usually defined, the IC50 is the point on the concentration scale where inhibition reaches its midpoint. A higher IC50 goes with weaker potency in that assay.

The values that follow come from patent publication US8178545B2, “Dual small molecule inhibitors of cancer and angiogenesis” (University of Virginia Patent Foundation, priority 2004, dated 2012).

Molecules are shown by their SMILES. Entries after “also recorded” stand apart in the source; their conditions may differ. Where two headings read alike, the source gives them in different places.

The test system of test [1] is HT29. Conditions: NCI data; cited from earlier work.
Test [2] deals with HCT-116. Conditions: NCI data; cited from earlier work.
Test [3] concerns COLO205. Particulars: NCI data; cited from earlier work.
Test [4] has as its system KM12. Conditions: NCI data; cited from earlier work.
In test [5] the test system is SW-620. Conditions: NCI data; cited from earlier work.
In test [6] the test system is HCT-15. Conditions: NCI data; cited from earlier work.
For test [7], the system named is HCC-2998. Particulars: NCI data; cited from earlier work.
Another test relates to A-10 cells. The test can be described thus: Cell based phenotypic screen of microtubule disruption. The source says:
FIG. 2 Depicts the microtubule depolymerizing effects of SC-2-71 in A-10 cells.
The microtubule disrupting effects of SC-2-71 were detected in a cell based phenotypic screen (FIG. 2). […] This effect is consistent with the effects observed from other microtubule depolymerizers. […] This is also a hallmark of microtubule disrupting compounds. Depolymerization of interphase microtubules is a classic response of cells to relatively high concentrations of microtubule disruptors such as the vinca alkaloids.

The test system of test [8] is blood vessels on the chick chorioallantoic membrane. In words: Chick chorioallantoic membrane (CAM) model of blood vessel growth. In kind it is in vivo. Particulars: 100 μM, compared to control. On the procedure: SC-2-71 (100 μM) inhibited a translational model of blood vessel growth in vivo (CAM, FIG. 8, panel B and C) as compared to control (FIG. 8, panel A). This strongly establishes that SC-2-71 has anti-angiogenic activity. Further it raises the question as to the expression level of βIII tubulin in HMECs.

The subject of test [9] is HCC-2998. The test can be described thus: NCI anticancer drug screen, proliferation (GI50). The test is classed as cell-based. Particulars: Homo sapiens. The method, then: (§1) SC-2-71 was evaluated against human cultured cell lines in the NCI Anticancer Drug Development Program. […] This includes potent inhibition of colon cancer cells from primary tumors, distal metastasis and ascites fluid.

The test system of test [10] is HT29. In words: NCI anticancer drug screen, proliferation (GI50). In kind it is cell-based. Conditions: Homo sapiens, HT-29. The method, then:
as §1

Test [11] deals with KM12. In words: NCI anticancer drug screen, proliferation (GI50). In kind it is cell-based. Particulars: Homo sapiens. On the procedure:
as §1

Test [12] relates to HCT-15. In words: NCI anticancer drug screen, proliferation (GI50). In kind it is cell-based. Conditions: Homo sapiens. The method, then:
as §1

The test system of test [13] is COLO205. The test can be described thus: NCI anticancer drug screen, proliferation (GI50). In kind it is cell-based. Conditions: Homo sapiens, COLO 205. The method, then: as §1
In test [14] the test system is HCT-116. The test can be described thus: NCI anticancer drug screen, proliferation (GI50). In kind it is cell-based. Particulars: Homo sapiens, grade III tumor cells (HCT116). The method, then:
as §1

Test [15] concerns SW-620. In words: NCI anticancer drug screen, proliferation (GI50). The test is classed as cell-based. Conditions: Homo sapiens. The method, then:
as §1

The next test deals with NCI 60 human cell lines. The test can be described thus: NCI 60 human cell lines (GI50). The test is classed as cell-based. Particulars: several cell lines of the NCI 60 panel. The text has this:
FIG. 1 Depicts the effects of SC-2-71 against the NCI 60 human cell lines (GI50).
Several interesting findings are evident.

Test [16] deals with Human Umbilical Vein Endothelial Cells (HUVEC). The test can be described thus: Endothelial cell proliferation. The test is classed as cell-based. Conditions: triplicate, ± SEM. The text has this: (§2) Without wishing to be bound by any particular theory, strategies and experiments are described herein pertaining to developing an anti-cancer strategy of simultaneously inhibiting endothelial and cancer cells. […] The taxanes, taxol and docetaxel, vinblastine, vincristine and 2-methoxyestradiol all have anti-angiogenic activity in vivo. […] SC-2-71's ability to inhibit angiogenesis in an in vivo model was then examined.

The test system of test [17] is Human Microvessel Endothelial Cells (HMEC). The test can be described thus: Endothelial cell proliferation. The test is classed as cell-based. Particulars: triplicate, ± SEM.
Description: as §2

The next test deals with tubulin. In words: Microtubule disruption / tubulin depolymerization. The test is classed as cell-based. Conditions: for Microtubule activity (% depolymerization): at 5 μM.
The test system of a further test is HeLa cells. In words: Mitotic spindle formation. In kind it is cell-based. Conditions: low micromolar concentrations.
Test [18] concerns NCI/ADR cells (Pgp expressing). In words: Proliferation of Pgp expressing cell line. In kind it is cell-based. Particulars: for IC50: Homo sapiens, NCI/ADR-RES; for Rr value: relative resistance, NCI/ADR vs MDA-MB-435. The text has this:
Relative resistance (Rr) values can be calculated by dividing the IC50 of the […] cell line.

Test [19] has as its system MDA-MB-435 cells. In words: Cell cycle progression by flow cytometry. In kind it is cell-based. Particulars: 3 μM for 18 h, Krishan's reagent. The method, then: The effects of SC-2-71 on cell cycle progression were determined using flow cytometry techniques. MDA-MB-435 cells were treated with 3 μM SC-2-71 for 18 h, stained with Krishan's reagent and DNA content analyzed.
Background: Flow cytometry measures light scatter and fluorescence of single cells or particles in a stream.

Test [20] concerns MDA-MB-435 cells. The test can be described thus: Anti-proliferative activity, SRB assay. In kind it is cell-based. Particulars: Homo sapiens. In general terms: In SRB staining, fixed cells bind dye roughly in proportion to their protein.
In test [21] the test system is NCI/ADR cells (Pgp expressing). Conditions: NCI/ADR (Pgp expressing) and MDA-MB-435 (Pgp deficient); Tinley et al. 2003; cited from earlier work.

On to `O=c1[nH]cc(F)c(=O)[nH]1` [Compound 5FU, 5-Fluorouracil], for which the GI50 is 6700 nM in the test on HT29 [1]; 4000 nM with HCT-116 [2]; 7200 nM in the test with COLO205 [3]; 11100 nM in the test on KM12 [4]; 26200 nM with SW-620 [5]; 5800 nM with HCT-15 [6]. The GI50 in the test with HCC-2998 [7] was 1400 nM.

Turning to `O=C1NC(c2ccc(-c3ccccc3)cc2)Nc2ccccc21` (stereo not drawn) [SC-2-71], in the test with A-10 cells, the micronucleation result is on record as “extensive micronucleation”. Besides, the “effect on cellular microtubules” value in the test on A-10 cells (interphase microtubule network) is reported as “concentration dependent loss of cellular microtubules”. Further, in [8], the “blood vessel growth (CAM)” value is given as “inhibited”. Moreover, the GI50 was determined as 68 nM with HCC-2998 [9] (HCC 2998, colon HCC2998, read-out: lowest GI50); 68 nM with HCC-2998 [9] (HCC-2998, read-out: GI50); 1000 nM in the test with HT29 [10]; 2000 nM in the test with KM12 [11]; 400 nM in the test with HCT-15 [12]; 900 nM in the test on COLO205 [13]. In addition, the GI50 in the test with HCT-116 [14] was 500 nM; with SW-620 [15], 4000 nM; in the test on NCI 60 human cell lines it was > 100000 nM. In addition, the IC50 in test [16] (Homo sapiens, HUVEC) stood at 1600 nM; in test [16] it was 1660 ± 500 nM; in test [17] it was 20000 nM; in [18] it was 1.8 ± 0.11 µM; with MDA-MB-435 cells [20], 0.61 ± 0.1 µM. Moreover, the “Microtubule activity (% depolymerization)” value with tubulin is reported as 50%. Besides, the “mitotic spindles and mitotic accumulation” value with HeLa cells is “formation of abnormal mitotic spindles and mitotic accumulation”. Besides, the “transport by Pgp” value in [18] (inferred from Rr values) is “poor substrate for transport by Pgp”. In [18], this compound had a Rr value of 2.95. For the same compound, the “cell cycle progression (DNA content)” value in the test on MDA-MB-435 cells [19] is listed as “distinct mitotic accumulation”.

Take `O=C(c1ccccc1)c1ccc(C2NC(=O)c3ccccc3N2)cc1` (stereo not drawn) [SC-4-283]: in the test on tubulin, the “inhibition of tubulin polymerization” value is “improved inhibitory activity in relation to SC-2-71; also recorded: potent inhibitor of tubulin polymerization” and the “Microtubule activity (% depolymerization)” value came to 50% at 5 μM. For the same compound, inhibition with MDA-MB-435 cells [20] was half-maximal at 0.9 ± 0.3 µM (IC50).

In the case of `O=C(c1ccccc1)c1ccc(C2NC(=O)c3ccccc3N2)cc1Cl` (stereo not drawn) [SC-5-87], the “Microtubule activity (% depolymerization)” value in the test on tubulin is 90% at 5 μM. In addition, in test [18], it took 0.76 ± 0.01 µM to reach half-maximal inhibition (IC50) and the Rr value is on record as 2.9. This compound had an IC50 in the test on MDA-MB-435 cells [20] of 0.26 ± 0.02 µM.

With `Cc1ccccc1-c1ccc(C2NC(=O)c3ccccc3N2)cc1` (stereo not drawn) [SC-5-121], the “Microtubule activity (% depolymerization)” value in the test on tubulin worked out at 90% at 5 μM. The results for the IC50 (in test [18]; with MDA-MB-435 cells [20]) were 0.88 ± 0.03 µM and 0.6 ± 0.1 µM, respectively. Besides, the Rr value in [18] is reported as 1.2.

Consider `CC[C@]1(O)C[C@H]2CN(CCc3c([nH]c4ccccc34)[C@@](C(=O)OC)(c3cc4c(cc3OC)N(C=O)[C@H]3[C@@](O)(C(=O)OC)[C@H](OC(C)=O)[C@]5(CC)C=CCN6CC[C@]43[C@@H]65)C2)C1` [Vincristine], for which the GI50 is 110 nM in the test with HT29 [1]; 120 nM in the test on HCT-116 [2]; 120 nM in the test on COLO205 [3]; 120 nM with KM12 [4]; 110 nM in the test on SW-620 [5]; 140 nM with HCT-15 [6]. Besides, the GI50 in the test on HCC-2998 [7] is 110 nM.

As for `CC(=O)O[C@H]1C(=O)[C@@]2(C)[C@H]([C@H](OC(=O)c3ccccc3)[C@]3(O)C[C@H](OC(=O)[C@H](O)[C@@H](NC(=O)c4ccccc4)c4ccccc4)C(C)=C1C3(C)C)[C@]1(OC(C)=O)CO[C@@H]1C[C@@H]2O` [taxol], the Rr value in test [21] is on record as 827.
